Assay results published in patent publication US20260132172A1, “IN VITRO BIOSYNTHESIS OF DIVERSE PYRIDINE-BASED MACROCYCLIC PEPTIDES” (The Brd. of Trustees of the Univ. of Illinois, priority 2022, published 2026).
Where a SMILES comes first, the peptide text is derived from it.

Legend:
MroB = assay: Competition fluorescence polarization with fluorescein-Δ12MroA1, MroB; format: binding, Micromonospora rosaria; conditions: for IC50: competition FP, 80 nM enzyme, 5 nM labeled Δ12MroA1
Description: (§1) The initial sample contained 80 nM enzyme, 5 nM labeled Δ12MroA1 peptide, and competitor peptide (concentration is from 20 μM to 100 μM, depending on the experiment). In a black 384-well plate (Corning 3575), 30 μL of initial sample was added to the first well, followed by 13 2-fold dilutions into subsequent wells containing 80 nM MBP-MroB and 5 nM labeled Δ12MroA1. The plate was covered from light and incubated at room temperature for 10 min, and then fluorescence polarization was measured (Biotek Synergy H4 hybrid reader) using the following filter (Ex: Em—485 nm/20 nm: 518 nm/20 nm). The obtained data was converted to anisotropy value and plotted against peptide concentration, and fitted to dose-response function:
(§2) Where: y=anisotropy value, A1=minimum anisotropy, A2=maximum anisotropy, p=Hill's coefficient, x=competitor concentration. The obtained IC50 was used to calculate inhibitor constant Krusing the following equation: 12
(§3) In cases where competitor concentration was not high enough to achieve a plateau, the competition curve was fitted with minimum anisotropy fixed to be the same value as the anisotropy value of the free probe solution. This calculation assumed that the labeled peptide was completely displaced from the enzyme binding pocket at a very high concentration of the competitor. […] The specific minimum anisotropy used in this experiment for both MroB and MroD was 65.

MroD [1] = assay: Competition fluorescence polarization with fluorescein-Δ12MroA1, MroD; format: binding, Micromonospora rosaria; conditions: competition FP, 80 nM enzyme, 5 nM labeled Δ12MroA1
Description: as §1, §2, §3

MroB/C = MroB/C dehydration (Dha formation) of MroA precursor peptide variants, MALDI-TOF-MS / LC-MS/MS; format: biochemical, Micromonospora rosaria; conditions: for dehydration by MroBC (site and extent): MroBC assays followed by LC-MS/MS analysis, result in words; for Dha formation: MroA2 multi-site variants, in vitro translated, MALDI-TOF-MS
Description: In a 0.65 mL protein low-binding Eppendorf tube placed on ice. 0.75 μL of purified mroA variant template DNA was mixed with 0.75 μL of Solution B and 1 μL of Solution A of PURExpress In vitro Protein Synthesis Kit (E6800L) purchased from NEB (total volume of reaction is 2.5 μL). The translation reactions were performed at 37° C. for 1 h on an aluminum block.
For a full MroBCD substrate scope investigation, a total translation volume for each variant of 7.5 μL was performed. 1.5 μL of 90 mM iodoacetamide (IAA) was added to quench dithiothreitol (DTT) in the translation reaction mixture, a thiol-based nucleophile that can react with electrophilic dehydroalanines generated from MroBC-catalyzed dehydration assays. The translation product was split into two parts with these corresponding volumes: 3 μL and 6 μL. In the 6 μL part. 10.2 μL of the enzyme mix containing enzymes and cofactors was added along with 1.8 μL 90 mM ATP (pH 7.5), which was used to initiate the reaction. The enzyme mix was made by adding these components in the following order: HEPES pH 7.5, MgCl2, glutamate, T. bispora tRNA^Glu (CUC), thermostable inorganic pyrophosphatase (TIPP), TEV (L56V/S135G/S219V) (w/w ratio with a total amount of MBP-tagged protein=1:10), MBP-MroB, MBP-MroC, and T. bispora GluRS. The enzyme mix was incubated 25 min at room temperature before adding to the translation product to facilitate in situ TEV-catalyzed cleavage of MBP from MBP-MroB and MBP-MroC. The enzymatic reaction proceeded for 1 h at room temperature. Overall, the concentration of components in the 18 μL reaction mix is as follows: 50 mM HEPES pH 7.5, 5 mM MgCl2. L-glutamate 1 mM, 3 μM T. bispora tRNA^Glu, 1 μM T. bispora GluRS, 2 μM MBP-MroB, 2 μM MBP-MroC, […], 0.027 U/μL TIPP, and 5 mM IAA. In addition, the 3 μL part was incubated with the same buffer lacking enzymes and tRNA as a translation control.
The reactions were performed similarly as described above, with 10 μM substrate concentration and without IAA. The total volume of each reaction is 100 μL.
Enzymatic assays were desalted using solid-phase extraction prior to LC-ESI-MS/MS analysis. Specifically, except for the thiazol(in)es-containing pyritide (which utilize 8 mg Pierce C18 Spin Column), the samples were applied to Toptip C18 (10-200 μL, Glygen Corp) wetted with 50 μL of 80% acetonitrile (0.1% formic acid) and equilibrate with 150 μL of 0.1% formic acid following the manufacturer instructions. The C18 columns (tips) are then washed with 150 μL of 0.1% formic acid and eluted using 100 μL 80% acetonitrile (0.1% formic acid). The samples were then dried utilizing lyophilization and redissolved in 25% acetonitrile (80 μL for enzymatic assays of in vitro-translated substrates and 200 μL for enzymatic assays of purified substrates). Then 20 μL of each sample was injected into an Agilent AdvanceBio Peptide Plus column (2.1×150 mm, 2.7 μm) equipped with an Agilent 6545B Q-TOF interfaced with an Agilent 1290 Infinity II LC system. Mobile phase solvents were composed of H2O, 0.1% formic acid (Solvent A), and acetonitrile 0.1% formic acid (Solvent B). The column compartment was maintained at 35° C. during all experiments. The column was equilibrated with 5 column volumes of starting mobile phase (95% A and 5% B) between injections. The gradient of all LC runs was as follows: 0-2 min: 95% A 5% B, 2-3 min: 70% A 30% B, 3-18 min: 20% A 80% B, 18-20 min: 5% A 95% B. The samples were run to waste for the first 3 min before applying to the mass spectrometer. Mass range was set from 100 to 1700 m/z (except for 412MroA1 W7G: 100-3000 m/z). MS parameters were as follows: gas, 320° C. at 8 L/min: nebulizer, 35 psig: nozzle voltage, 1000 V: sheath gas, 350° C. at 11 L/min: capillary, 3500 V: fragmentor, 125 V: skimmer, 65 V: MS scan rate (10) spectra/s): MS-MS scan rate (5 spectra/s); and isolation width (MS/MS), 1.3 m z. […]

[2] = biological target: MBP-MroB (Micromonospora rosaria MroB with maltose-binding protein fused to the N-terminus) (Micromonospora rosaria) [MBP: P0AEX9]; assay: competition fluorescence polarization against fluorescein-Δ12MroA1
[3] = biological target: MBP-MroD (Micromonospora rosaria MroD with maltose-binding protein fused to the N-terminus) (Micromonospora rosaria) [MBP: P0AEX9]; assay: as above
MroD [4] = assay: MroD [4+2] macrocyclization of didehydrated MroA2 variants, MALDI-TOF-MS; format: biochemical, Micromonospora rosaria; parameters: key: +++ indicates enzyme activity roughly equal to wild-type MroA2; ++ indicates modestly reduced enzyme activity; + indicates severely reduced enzyme activity; − indicates no detectable enzyme activity (no macrocycles detected); conditions: MroA2 multi-site variants; qualitatively estimated from leader peptide vs remaining didehydrated intermediate
Description: After incubation, the enzyme reaction (18 μL) was split into two equal parts. One part was treated with MBP-MroD such that the final concentration of MBP-MroD is 3 μM, and the other part was added the same volume but with buffer lacking MBP-MroD (50 mM HEPES, 300 mM NaCl, 2.5% glycerol, 0.5 mM TCEP). The reaction further proceeded for 1.5 h at room temperature. All reaction mixture was then desalted with solid-phase extraction using Ziptip with 0.6 μL C18 resin (EMD Millipore) and crystallized on an MTP384 steel target plate using either saturated sinapic acid or 50 mg/mL Super DHB [dissolved in 60% acetonitrile and 0.1% trifluoroacetic acid (TFA)] as the matrix. The crystallized spots were then analyzed using MALDI-TOF-MS (Bruker Ultraflex). The external standard for MALDI-TOF-MS analysis is ProteoMass Peptide and Protein MALDI-MS Calibration Kit (Sigma).

| Compound | Dha formation (MroB/C) | Relative MroD conversion (MroD [4]) | further results |
| --- | --- | --- | --- |
| CC[C@H](C)[C@H](NC(=O)[C@H](CC(=O)O)NC(=O)[C@H](CC(C)C)NC(=O)[C@H](CC(=O)O)NC(=O)[C@@H](N)CO)C(=O)N[C@H](C(=O)N[C@@H](CC(=O)O)C(=O)N[C@@H](CC(C)C)C(=O)N[C@@H](CC(=O)O)C(=O)N[C@@H](CC(C)C)C(=O)N[C@@H](C)C(=O)N[C@H](C(=O)N[C@@H](CC(=O)O)C(=O)N[C@@H](CCC(=O)O)C(=O)N[C@@H](CCC(=O)O)C(=O)N[C@@H](CC(C)C)C(=O)N[C@@H](C)C(=O)N[C@@H](C)C(=O)N[C@@H](CC(C)C)C(=O)N[C@@H](CO)C(=O)N[C@H](C(=O)NCC(=O)NCC(=O)N[C@@H](CC(C)C)C(=O)NCC(=O)N[C@@H](CC(N)=O)C(=O)N[C@H](C(=O)N[C@@H](CCC(=O)O)C(=O)N[C@H](C(=O)NCC(=O)N[C@@H](C)C(=O)N[C@@H](CO)C(=O)NCC(=O)N[C@@H](Cc1c[nH]c2ccccc12)C(=O)N[C@@H](CC(C)C)C(=O)NCC(=O)N[C@@H](CO)C(=O)N[C@@H](Cc1c[nH]c2ccccc12)C(=O)N[C@H](C(=O)N[C@H](C(=O)OC)[C@@H](C)CC)C(C)C)C(C)C)[C@@H](C)O)C(C)C)C(C)C)C(C)C [Δ12MroA1-COOMe] (H-SDLDIVDLDLAVDEELAALSVGGLGNTEVGASGWLGSWVI-OMe) |  |  | IC50 (MroB): 4200 ± 1700 nM; loss in binding affinity to MroB (MroB; relative to Δ12MroA1): ~8 fold; IC50 (MroD [1]): 400 ± 60 nM |
| Ac-GASGWLGSWVI-OH [GlyAla-MroA1 core, Ac-GASGWLGSWVI] |  |  | dehydration by MroBC (site and extent) (MroB/C): only Ser6 is dehydrated; IC50 (MroB): 27200 ± 1900 nM; IC50 (MroD [1]): 40900 ± 5000 nM |
| GlyAla-MroA1 core (peptide) |  |  | IC50 [2]: 27200 nM; IC50 [3]: 40900 nM |
| H-SDLDIVDLDLAVDEELAALSVGGLGNTEVGA-OH [Δ12MroA1 Leader] |  |  | IC50 (MroB): 19400 ± 1600 nM; IC50 (MroD [1]): 16000 ± 4400 nM |
| H-SDLDIVDLDLAVDEELAALSVGGLGNTEVGASGWLGSGVI-OH [Δ12MroA1-W7G] |  |  | dehydration by MroBC (site and extent) (MroB/C): only Ser1 is predominantly dehydrated; IC50 (MroB): 8100 ± 3900 nM; IC50 (MroD [1]): 2400 ± 300 nM |
| H-SDLDIVDLDLAVDEELAALSVGGLGNTEVGASGWLGSWGI-OH [Δ12MroA1-V8G] |  |  | IC50 (MroB): 1100 ± 200 nM; IC50 (MroD [1]): 1700 ± 400 nM |
| H-SDLDIVDLDLAVDEELAALSVGGLGNTEVGASGWLGSWVG-OH [Δ12MroA1-I9G] |  |  | IC50 (MroB): 2000 ± 600 nM; IC50 (MroD [1]): 910 ± 90 nM |
| SGDAMRWRSWLI [Number 53-A8R] | 2 Dha | − |  |
| SGGYRPHSWLI [Number 38] | 2 Dha | − |  |
| SGHYKPQASWLI [Number 55] | 2 Dha | − |  |
| SGHYKPQRSWLI [Number 55-A8R] | 2 Dha | − |  |
| SGIAKEVQSWLI [Number 47] | 2 Dha | − |  |
| SGIAKEVRSWLI [Number 47-Q8R] | 2 Dha | − |  |
| SGKALEFSWLI [Number 29] | 2 Dha | − |  |
| SGLQHGKRSWLI [Number 52-Y8R] | 2 Dha | − |  |
| SGLQHGKYSWLI [Number 52] | 2 Dha | − |  |
| SGRANSWLI [Number 2] | 2 Dha | − |  |
| SGRYAGWSWLI [Number 39] | 2 Dha | − |  |
| SGVKADSWLI [Number 4] | 2 Dha | − |  |
| SGYDRQYSWLI [Number 56] | 2 Dha | − |  |
| SGYHFHNRSWLI [Number 54-V8R] | 2 Dha | − |  |
| SGYHFHNVSWLI [Number 54] | 2 Dha | − |  |
| Δ12MroA1 (variant of MroA1 in which the first 12 residues were deleted) (peptide) |  |  | IC50 [2]: 680 nM; IC50 [3]: 900 nM |
| Δ12MroA1 Leader (peptide) |  |  | IC50 [2]: 19400 nM; IC50 [3]: 16000 nM |
| Δ12MroA1-COOMe (peptide) |  |  | IC50 [2]: 4200 nM; fold loss in binding affinity (against Δ12MroA1) [2]: 8 fold; IC50 [3]: 400 nM |
| Δ12MroA1-I9G (peptide) |  |  | IC50 [2]: 2000 nM; IC50 [3]: 910 nM |
| Δ12MroA1-V8G (peptide) |  |  | IC50 [2]: 1100 nM; IC50 [3]: 1700 nM |
| Δ12MroA1-W7G (peptide) |  |  | IC50 [2]: 8100 nM; IC50 [3]: 2400 nM |
